Experiments:
MIC1 = experiment: SPR binding of PROTACs to immobilized antibody MIC1; conditions: binding of PROTACs to MIC1, steady-state model
Method: The binding affinities of hit antibodies MIC1 and MIC2 to a diverse set of VH032-based PROTACs (FIGS. 8A-8B) was determined by surface plasmon resonance (SPR) in a Biacore T200 instrument. The running buffer consist of PBS, 0.05% Tween-20, 2% DMSO and temperature and flow rate were set to 30° C. and 30 μL/min, respectively. The assay setup is depicted exemplarily in FIG. 7A. CM5 sensor chips were coated with antibody (=ligand; 2500 RU) using standard EDC/NHS chemistry. PROTACs (=analytes) were serially diluted (1 μM-1.9 nM) in running buffer, injected to the instrument in consecutive runs and were captured by the antibody resulting in an increase of the corresponding SPR response. After the association step (300 s), running buffer was injected for 600 s and the PROTAC dissociated from the antibody leading to signal decrease. After each run, residual bound PROTAC was removed from the immobilized antibody by injection of 10 mM glycine/HCl, pH 1.5 for 2×30 s regenerating the antibody for the next association and dissociation cycle. To compensate for matrix effects, the measured SPR response signal was subtracted by the analyte response to an inactivated (EDC/NHS, ethanol amine) reference surface omitting the ligand. Furthermore, a DMSO solvent correction was performed and analyte response was subtracted by the running buffer signal. […]

[1] = Pillow, T. H. et al., ChemMedChem 15 (2020) 17-25; cited from earlier work
HEPG2 cells = experiment: CellTiter-Glo cell viability assay (MIC2-based PAX); conditions: EGFR-negative HEPG2, complexes at 50% loading
Method: 2000 cells per well were seeded into white-opaque 384-well plates followed by overnight incubation in a humid chamber at 37° C. and 5% CO2. Complexation was performed as described in chapter 7.4.
The solutions were added to the cells based on the antibody concentration using Tecan D300e dispenser and all wells were normalized to the same volume using 0.3% TW20 in PBS pH 7.4 and DMSO. The assay was developed after 3 days if not otherwise stated using CellTiter-Glo Luminescent Cell Viability Assay as described in the manufacturer's protocol. In brief, the plates were equilibrated to room temperature for 30 minutes. 100 mL CellTiter-Glo Buffer were added to the CellTiter-Glo Substrate Flask and mixed well. 30 μL of the reagent was transferred to each well. After incubation for 3 minutes at room temperature while shaking at 550 rpm, the plate was incubated for another 10 minutes at room temperature. The luminescence was read on an Envision reader. The evaluation was performed using GraphPad Prism 8 by normalization of cells treated with sample to untreated cells. The data were fitted with 4 point logistic curve to determine the IC50 value.

MV411 cells = experiment: CellTiter-Glo cell viability assay (VHH-based PAX); design: species or system human; conditions: MV411, PROTAC alone
Method: Several cell viability experiments were performed following the procedure described below: Cells were seeded in different media into white cell culture-treated flat and clear bottom multiwell plates followed by overnight incubation in a humid chamber at 37° C. and 5% CO2. Complexation was performed as described in chapter 7.4.
The solutions were added to the cells based on the antibody concentration using nanodrop dispension using a Tecan D300e Digital Dispenser and all wells were normalized to the same volume using 0.3% TW20 in PBS pH 7.4 and DMSO to a final solvent concentration of 0.05% DMSO and 0.003% TW20. Incubation was performed at 37° C. at 5% or 10% CO2 dependent on the medium. The assay was developed after 3 days if not otherwise stated using CellTiter-Glo Luminescent Cell Viability Assay as described in the manufacturer's protocol. In brief, the plates were equilibrated to room temperature for 30 minutes. 100 mL CellTiter-Glo Buffer were added to the CellTiter-Glo Substrate Flask and mixed well. 30 μL of the reagent was transferred to each well. After incubation for 3 minutes at room temperature while shaking at 550 rpm, the plate was incubated for another 10 minutes at room temperature. The luminescence was read on an Envision reader from Perkin Elmer. […]

BRD4 = BRD4 (Homo sapiens, UniProt O60885); experiment: BRD4 Western blot degradation assay in MV411 cells; assay type: cell-based; design: endogenous in cells; host or cells: MV411; conditions: CD33-positive MV411 cells, 24 h, complexes (1:1)
Method: Therefore, CD33-positive MV411 cells were treated with CD33xMIC7+GNE987 or DIGxMIC7+GNE987, as non-binding PAX control, at different concentrations and GNE987 alone as control. MV411 cells were cultured in RPMI-1640 medium supplemented with 10% FCS and penicillin-streptomycin. MV411 cells were seeded in 12-well plates at 1 million cells/ml in 2 ml culture medium and cultured overnight in cell incubator at 37° C. and 5% CO2. Complexation was performed as described in chapter 7.4. GNE987 only was preincubated at identical conditions but in absence of antibody. Subsequently, cells were treated by nanodrop dispersion using a Tecan dispenser with either CD33xMIC7+GNE987 (1:1), DIGxMIC7+GNE987 (1:1) or GNE987 in the respective concentration. All conditions were normalized to 0.0005% (v/V) DMSO and 3.0E-5% Tween20. Cells were incubated for 24 h in cell incubator at 37° C. and 5% CO2. […] Protein concentration was determined via Mettler Toledo UV5Nano photometer. […]
After incubation with corresponding HRP-labeled anti-rabbit/mouse secondary antibodies (GE-Healthcare) at 1:10,000 dilution, blots were detected using ECL solution (Advansta) and x-ray films (GE-Healthcare). Results were analyzed with ImageJ software (version 1.53K, NIH). […]

| Structure (SMILES) | Kd (MIC1) [nM] | half-life reported in literature [1] [h] | IC50 (HEPG2 cells) [nM] | IC50 (MV411 cells) [nM] | BRD4 degradation (Western blot) (BRD4) |
| --- | --- | --- | --- | --- | --- |
| Cc1ncsc1-c1ccc([C@H](C)NC(=O)[C@@H]2C[C@@H](O)CN2C(=O)[C@@H](NC(=O)COCCCOCCNC(=O)C[C@@H]2N=C(c3ccc(Cl)cc3)c3c(sc(C)c3C)-n3c(C)nnc32)C(C)(C)C)cc1 [ARV771] | 6.5 | – | – | – | – |
| Cc1ncsc1-c1ccc(CNC(=O)[C@@H]2C[C@@H](O)CN2C(=O)[C@@H](NC(=O)CCCCCCCCCCNC(=O)c2cc3c(cc2CS(C)(=O)=O)-c2cn(C)c(=O)c4[nH]cc(c24)CN3c2ncc(F)cc2F)C(C)(C)C)cc1 [GNE987] | – | 2.8 | 3.1 | < 0.045 | BRD4 degradation was found |
